# “And” between values parts separate entries of the source, which are not always exact repeats. Equal values may be shown once.
# Legend:
# CYP3A4 [1] = assay: CYP mRNA induction in cultured human hepatocytes; assay type: in vitro ADME; conditions: donors, HCS-40 individually
# CYP2C19 = target: T1, CYP2C19 (Homo sapiens, UniProt P33261); assay: Single substrate DDI assay, reversible CYP inhibition in human liver microsomes; assay type: in vitro ADME
# T1 construct: from tissue; host or cells: human liver microsomes
# ATP blood levels = assay: Phase 1: blood ATP levels in SCD patients; assay type: in vivo, human; conditions: single 700 mg dose (FIG. 54A)
# Method: In this study, SAD/MAD cohorts are randomized (3 to 1) to receive Compound 1 or placebo (P). Compound 1 was evaluated first in 4 healthy SAD cohorts and 4 healthy MAD (14-day dosing period) cohorts. Based on the safety, and PK/PD profile from HS, Compound 1 is then evaluated in 1 SCD SAD cohort and 2 SCD MAD cohorts. Specifically, based on the safety and pharmacokinetic/pharmacodynamics (PK/PD) profile in healthy volunteer studies, Compound 1 is evaluated in patients (pts) with SCD, first in a single dose (SD or SAD) cohort and then in multiple-dose (MD or MAD) cohorts (14-day and 12-week). Safety assessments include AEs, vital signs, ECGs and laboratory parameters. PK/PD blood sampling was performed on Day 1 (SAD/MAD) and Day 14 (MAD) and up to 72 h after the last dose and at the end-of-study visit. […]
# The following table reports the mean percentage change in ATP blood levels, relative to baseline, measured over time in SCD patients after a single dose of Compound 1 (700 mg):
# ATP levels were increased from baseline in patients receiving Compound 1, resulting in improved RBC function and reduced hemoloysis. The following table reports the mean percentage change in ATP blood levels, relative to baseline, measured over time after the first dose on days 1 and 14 in SCD patients who received daily doses of Compound 1 (300 mg QD) for 14 days: […]
# CYP1A2 = assay: CYP mRNA induction in cultured human hepatocytes; assay type: in vitro ADME; conditions: donors AIH, EUJ, HC5-40 individually
# CYP2C9 = target: T2, CYP2C9 (Homo sapiens, UniProt P11712); assay: Single substrate DDI assay, reversible CYP inhibition in human liver microsomes; assay type: in vitro ADME
# T2 construct: from tissue; host or cells: human liver microsomes
# PKR in mouse RBCs = target: T3, PKR in mouse RBCs (Mus musculus, UniProt P53657); assay: PKR activation in mouse red blood cells; assay type: cell-based
# T3 construct: endogenous in cells; host or cells: mouse RBCs freshly isolated from whole blood
# Source text: Mouse RBCs were isolated fresh from whole blood using a Ficoll gradient and assayed with methods similar to those used in the human RBCs assays.
# CYP3A4 [2] = target: T4, CYP3A4 (Homo sapiens, UniProt P08684); assay: Single substrate DDI assay, reversible CYP inhibition in human liver microsomes; assay type: in vitro ADME
# T4 construct: from tissue; host or cells: human liver microsomes
# aromatase = target: T5, aromatase (Homo sapiens, UniProt P11511); assay: Aromatase inhibition; conditions: non-clinical testing
# T5 sequence (P11511 1-503): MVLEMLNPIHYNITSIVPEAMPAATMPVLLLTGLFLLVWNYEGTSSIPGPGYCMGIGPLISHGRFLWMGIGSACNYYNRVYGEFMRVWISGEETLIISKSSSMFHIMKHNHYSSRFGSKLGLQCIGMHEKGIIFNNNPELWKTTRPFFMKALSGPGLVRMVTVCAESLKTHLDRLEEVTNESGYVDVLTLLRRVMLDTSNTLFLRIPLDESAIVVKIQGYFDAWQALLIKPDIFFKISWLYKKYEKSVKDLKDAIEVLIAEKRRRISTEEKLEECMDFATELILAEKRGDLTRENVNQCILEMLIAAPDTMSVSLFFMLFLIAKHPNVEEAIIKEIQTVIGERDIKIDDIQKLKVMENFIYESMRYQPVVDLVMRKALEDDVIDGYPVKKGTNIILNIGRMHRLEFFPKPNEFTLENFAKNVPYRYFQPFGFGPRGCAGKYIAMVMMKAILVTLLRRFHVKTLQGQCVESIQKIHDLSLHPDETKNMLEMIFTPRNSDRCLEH
# CYP2B6 = assay: CYP mRNA induction in cultured human hepatocytes; assay type: in vitro ADME; conditions: donors AIH, EUJ, HC5-40 individually
# Log D7.4 = assay type: physicochemical; conditions: pH 7.4
# T3 sequence (P53657 whole entry): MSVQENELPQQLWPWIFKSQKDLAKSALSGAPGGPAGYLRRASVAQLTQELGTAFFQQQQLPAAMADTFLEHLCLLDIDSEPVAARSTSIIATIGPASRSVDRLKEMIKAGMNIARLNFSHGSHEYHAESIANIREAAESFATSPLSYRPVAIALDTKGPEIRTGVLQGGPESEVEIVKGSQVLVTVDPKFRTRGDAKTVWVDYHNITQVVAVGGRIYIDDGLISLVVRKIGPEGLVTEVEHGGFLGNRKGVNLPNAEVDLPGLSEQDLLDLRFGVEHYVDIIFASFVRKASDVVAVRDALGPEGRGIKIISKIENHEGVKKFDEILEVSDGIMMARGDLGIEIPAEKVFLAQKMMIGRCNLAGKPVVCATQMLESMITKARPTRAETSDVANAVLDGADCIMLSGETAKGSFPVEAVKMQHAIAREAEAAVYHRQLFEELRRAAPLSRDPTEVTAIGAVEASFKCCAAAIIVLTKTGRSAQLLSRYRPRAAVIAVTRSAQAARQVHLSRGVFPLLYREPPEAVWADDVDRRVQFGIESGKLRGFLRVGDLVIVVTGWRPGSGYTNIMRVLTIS
# T4 sequence (P08684 whole entry): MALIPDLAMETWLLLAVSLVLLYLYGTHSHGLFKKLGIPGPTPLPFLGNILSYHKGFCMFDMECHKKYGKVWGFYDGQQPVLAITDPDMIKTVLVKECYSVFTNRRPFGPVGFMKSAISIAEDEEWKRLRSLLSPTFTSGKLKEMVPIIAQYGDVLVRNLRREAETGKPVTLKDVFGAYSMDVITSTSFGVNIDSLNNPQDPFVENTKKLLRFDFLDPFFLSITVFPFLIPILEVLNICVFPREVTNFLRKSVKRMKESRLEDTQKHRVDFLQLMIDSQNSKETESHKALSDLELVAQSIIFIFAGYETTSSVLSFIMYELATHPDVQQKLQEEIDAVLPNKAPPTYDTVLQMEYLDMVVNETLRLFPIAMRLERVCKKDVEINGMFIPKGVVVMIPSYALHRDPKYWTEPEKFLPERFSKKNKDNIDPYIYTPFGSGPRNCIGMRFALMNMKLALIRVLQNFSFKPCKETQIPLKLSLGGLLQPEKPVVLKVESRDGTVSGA
# T1 sequence (P33261 whole entry): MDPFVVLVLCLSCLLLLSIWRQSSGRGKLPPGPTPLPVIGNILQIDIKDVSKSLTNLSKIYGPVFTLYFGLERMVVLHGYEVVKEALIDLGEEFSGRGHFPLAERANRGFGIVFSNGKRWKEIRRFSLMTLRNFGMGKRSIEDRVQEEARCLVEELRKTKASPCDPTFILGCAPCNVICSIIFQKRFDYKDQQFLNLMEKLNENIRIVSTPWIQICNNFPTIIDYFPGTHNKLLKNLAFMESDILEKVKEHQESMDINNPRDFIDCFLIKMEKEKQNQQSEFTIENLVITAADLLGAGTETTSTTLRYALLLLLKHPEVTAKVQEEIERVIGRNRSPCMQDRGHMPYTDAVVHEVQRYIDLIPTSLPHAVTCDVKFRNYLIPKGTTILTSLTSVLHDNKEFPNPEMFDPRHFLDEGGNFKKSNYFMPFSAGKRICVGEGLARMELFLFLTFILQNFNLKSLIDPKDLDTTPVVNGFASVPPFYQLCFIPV
# T2 sequence (P11712 whole entry): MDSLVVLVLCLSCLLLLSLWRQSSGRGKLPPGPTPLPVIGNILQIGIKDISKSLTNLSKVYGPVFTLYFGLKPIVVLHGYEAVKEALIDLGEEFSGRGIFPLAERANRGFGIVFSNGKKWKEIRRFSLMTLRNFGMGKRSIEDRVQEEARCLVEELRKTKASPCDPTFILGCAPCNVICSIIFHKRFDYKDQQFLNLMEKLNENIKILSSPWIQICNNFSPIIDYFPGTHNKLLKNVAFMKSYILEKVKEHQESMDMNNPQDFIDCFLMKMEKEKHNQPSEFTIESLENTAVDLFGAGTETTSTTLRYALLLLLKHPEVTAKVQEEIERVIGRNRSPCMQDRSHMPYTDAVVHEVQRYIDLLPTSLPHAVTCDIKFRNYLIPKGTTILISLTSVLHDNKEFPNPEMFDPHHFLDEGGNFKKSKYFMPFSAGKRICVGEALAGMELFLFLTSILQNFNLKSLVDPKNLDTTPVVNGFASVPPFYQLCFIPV
structure (smiles),measurement,setting,value
"O=C([C@H](CO)c1ccccc1)N1CC2=C(C1)CN(S(=O)(=O)c1cnc3c(c1)OCCO3)C2 (single isomer, unassigned) [Compound 1]",mRNA Fold Induction CYP3A4,CYP3A4 [1]; 0.033 μM,0.940 fold and 1.09 fold and 1.25 fold
same,mRNA Fold Induction CYP3A4,CYP3A4 [1]; 0.1 μM,1.13 fold and 0.875 fold and 0.889 fold
same,mRNA Fold Induction CYP3A4,CYP3A4 [1]; 0.33 μM,1.11 fold and 1.18 fold and 0.836 fold
same,mRNA Fold Induction CYP3A4,CYP3A4 [1]; 1 μM,1.41 fold and 1.07 fold and 1.18 fold
same,mRNA Fold Induction CYP3A4,CYP3A4 [1]; 3.3 μM,1.84 fold and 1.25 fold and 1.62 fold
same,mRNA Fold Induction CYP3A4,CYP3A4 [1]; 10 μM,3.60 fold and 2.23 fold and 1.29 fold
same,IC50,CYP2C19,> 30 µM
same,lag of maximum ATP increase behind maximum plasma concentration,ATP blood levels,at least 24 hours
same,mRNA Fold Induction CYP1A2,CYP1A2; 0.033 μM,1.07 fold and 0.989 fold and 1.23 fold
same,mRNA Fold Induction CYP1A2,CYP1A2; 0.1 μM,0.942 fold and 0.958 fold and 1.05 fold
same,mRNA Fold Induction CYP1A2,CYP1A2; 0.33 μM,0.887 fold and 1.10 fold and 1.20 fold
same,mRNA Fold Induction CYP1A2,CYP1A2; 1 μM,0.911 fold and 1.20 fold and 1.14 fold
same,mRNA Fold Induction CYP1A2,CYP1A2; 3.3 μM,0.892 fold and 1.24 fold and 1.11 fold
same,mRNA Fold Induction CYP1A2,CYP1A2; 10 μM,1.02 fold and 1.33 fold and 1.25 fold
same,IC50,CYP2C9,> 30 µM
same,Max − Min (%),PKR in mouse RBCs; individual replicates 1-2,<50% and <100%
same,Mean Max − Min (%),PKR in mouse RBCs; mean,<100%
same,IC50,CYP3A4 [2],> 30 µM
same,aromatase inhibition,aromatase,absence of aromatase inhibition
same,mRNA Fold Induction CYP2B6,CYP2B6; 0.033 μM,1.17 fold
same,mRNA Fold Induction CYP2B6,CYP2B6; 0.1 μM,1.23 fold and 1.06 fold
same,mRNA Fold Induction CYP2B6,CYP2B6; 0.33 μM,1.10 fold and 0.964 fold
same,mRNA Fold Induction CYP2B6,CYP2B6; 1 μM,1.29 fold
same,mRNA Fold Induction CYP2B6,CYP2B6; 3.3 μM,1.24 fold
same,mRNA Fold Induction CYP2B6,CYP2B6; 10 μM,1.43 fold and 1.21 fold
same,fold induction at 1 µM,"CYP2B6; human, 1 μM",1.07
same,fold induction at 3.3 µM,"CYP2B6; human, 3.3 μM",1.25
same,fold induction at 0.033 µM,"CYP2B6; human, primary cultured human hepatocytes, 0.033 μM",0.982
same,fold induction at 0.1 µM,"CYP2B6; human, primary cultured human hepatocytes, 0.1 μM",1.01
same,fold induction at 0.33 µM,"CYP2B6; human, primary cultured human hepatocytes, 0.33 μM",1
same,fold induction at 1 µM,"CYP2B6; human, primary cultured human hepatocytes, 1 μM",1
same,fold induction at 3.3 µM,"CYP2B6; human, primary cultured human hepatocytes, 3.3 μM",1.26
same,fold induction at 10 µM,"CYP2B6; human, primary cultured human hepatocytes, 10 μM",1.7
same,logD,Log D7.4,1.09

# Source: patent US20220087983A1, “ACTIVATING PYRUVATE KINASE R” (FORMA Therapeutics, Inc., priority 2020, published 2022)
